The values below are quoted from earlier work in patent US9072768B2, “Composition and method for increasing effectiveness of radiation or chemotherapy” (Kibow Biotech, Inc., priority 2013, dated 2015).

For this data set, the system named is colorectal cancer. Particulars: adjuvant treatment, stage III patients.

Consider `O=c1[nH]cc(F)c(=O)[nH]1` [5-Fluorouracil], for which the “improvement of absolute 5-year survival” value is “approximately 10%”.
